# Reference: patent publication US10688086B2, “Method for treating cancer with dihydropyridine calcium antagonist” (GERMARK BIOTECHNOLOGY CO., LTD, priority 2016, dated 2020)
# Legend:
# [1] = tested on: patients with gastric cancer; experiment: NHIRD statistical analysis of death/survival with vs without Amlodipine, gastric cancer; assay type: in vivo, human
# Method: In this example, statistical analysis was performed on the statistics of the effects of Amlodipine in the treatment of cancers, using data from the National Health Insurance Research Database (NHIRD) covering detailed healthcare data for the population in Taiwan. Then, the diagnostic data at the time of admission in the database and the database of patients with registered major injuries were used, and statistical analysis was performed using data from patients with gastric cancer.
# The dose of Amlodipine used in Example 1 was at least 120 mg/30 days. Therefore, in order to obtain the minimum effective dose, the survival rate of patients treated with Amlodipine for days in 90 days after cancer diagnosis was further statistically analyzed.
# [2] = tested on: patients having colorectal cancer; experiment: NHIRD statistical analysis of death/survival with vs without Amlodipine, colorectal cancer; assay type: in vivo, human
# [3] = tested on: patients having pancreatic cancer; experiment: NHIRD statistical analysis of death/survival with vs without Amlodipine, pancreatic cancer; assay type: in vivo, human
# [4] = tested on: patients having lung cancer; experiment: NHIRD statistical analysis of death/survival with vs without Amlodipine, lung cancer; assay type: in vivo, human
# [5] = tested on: patients having breast cancer; experiment: NHIRD statistical analysis of death/survival with vs without Amlodipine, breast cancer; assay type: in vivo, human
# [6] = tested on: patients having bladder cancer; experiment: NHIRD statistical analysis of death/survival with vs without Amlodipine, bladder cancer; assay type: in vivo, human
# liver cancer cells HepG2 = experiment: Cell cycle analysis by flow cytometry, HepG2; assay type: cell-based
# Method: Two liver cancer cell lines HepG2 and Hep3B were cultured. The medium used for the culture of the cells was DMEM medium containing 10% fetal bovine serum, 10,000 U/ml penicillin and 10,000 μg/ml streptomycin. The culture occurred in an environment at 37° C. with 5% CO2, and the medium was changed every 2-3 days during the culture. After the cells were cultured to about 70% confluence, they were treated with various concentrations of Amlodipine: 0, 1.5625, 3.125, 6.25, 12.5, 25, and 50 μM for various times: 48, and 72 hrs. After the experiment, the viability of each liver cancer cell line was observed and the cell viability and cell cycle were analyzed. The cell cycle of each liver cancer cell line treated under different conditions was analyzed by flow cytometry. […] Still further, each liver cancer cell line was treated with Amlodipine at a concentration of 12.5 μM for 0, 12, 24, 36 and 48 hrs, and the cell cycle was analyzed by flow cytometry.
# HepG2 cells [7] = experiment: Cell viability (WST-1 72 hrs; PI flow cytometry 48 hrs), HepG2; assay type: cell-based
# Method: (§1) Two liver cancer cell lines HepG2 and Hep3B were cultured. The medium used for the culture of the cells was DMEM medium containing 10% fetal bovine serum, 10,000 U/ml penicillin and 10,000 μg/ml streptomycin. The culture occurred in an environment at 37° C. with 5% CO2, and the medium was changed every 2-3 days during the culture. After the cells were cultured to about 70% confluence, they were treated with various concentrations of Amlodipine: 0, 1.5625, 3.125, 6.25, 12.5, 25, and 50 μM for various times: 48, and 72 hrs. After the experiment, the viability of each liver cancer cell line was observed and the cell viability and cell cycle were analyzed. The HepG2 and Hep3B cells treated with various concentrations of Amlodipine for 72 hrs were added to WST-1 reagent. After 330 minutes of reaction, the absorbance at a wavelength of 420-480 nm was measured. The HepG2 and Hep3B cells treated with various concentrations of Amlodipine for 48 hrs were scraped off with 0.05% Trypsin-EDTA, and then added to 2 mg/ml PI solution. The cell viability was analyzed by flow cytometry.
# Hep3B cells [8] = experiment: Cell viability (WST-1 72 hrs; PI flow cytometry 48 hrs), Hep3B; assay type: cell-based
# Method: as §1
# HepG2 cells [9] = experiment: Western blotting of apoptosis-related proteins, HepG2; assay type: cell-based; conditions: various concentrations, 24 hours
# Method: (§2) The expression of apoptosis-related genes in each liver cancer cell line treated with various concentrations of Amlodipine for 24 hours were detected by Western blotting.
# Hep3B cells [10] = experiment: Western blotting of apoptosis-related proteins, Hep3B; assay type: cell-based; conditions: various concentrations, 24 hours
# Method: as §2
# HepG2 cells [11] = experiment: Cell invasion (Transwell, crystal violet), HepG2; assay type: cell-based; conditions: 10 μM, 72 hrs
# Method: (§3) The HepG2 and Hep3B cells were separately cultured in the insert of the Transwell plate, then added with 10 μM Amlodipine and cultured for 48 or 72 hrs. The cells on the inner surface of the insert were taken out, and the insert was placed in methanol and stained with a crystal violet solution. […] That is, Amlodipine is effective in slowing the progression of cancers, thereby achieving a therapeutic effect in the treatment of cancers.
# Hep3B cells [12] = experiment: Cell invasion (Transwell, crystal violet), Hep3B; assay type: cell-based; conditions: 10 μM, 72 hrs
# Method: as §3
# [13] = 24/30: Amlodipine at least 24 days within 30 days after cancer diagnosis
# [14] = 48/60: Amlodipine at least 48 days within 60 days after cancer diagnosis
# [15] = 72/90: Amlodipine at least 72 days within 90 days after cancer diagnosis
# [16] = Amlodipine for 20 days within 90 days after diagnosis
# [17] = day of treatment with Amlodipine 72/9
# [18] = 12.5 μM Amlodipine, treatment time 12 hr
# [19] = 12.5 μM Amlodipine, treatment time 24 hr
# [20] = 12.5 μM Amlodipine, treatment time 36 hr
# [21] = 12.5 μM Amlodipine, treatment time 48 hr
compound,measurement,setting,value
CCOC(=O)C1=C(COCCN)NC(C)=C(C(=O)OC)C1c1ccccc1Cl (stereo not drawn) [Amlodipine],Crude HR HRs (95% C.I.),[1]; [13],0.43 (0.39-0.47)
same,Crude HR HRs (95% C.I.),[1]; [14],0.43 (0.39-0.48)
same,Crude HR HRs (95% C.I.),[1]; [15],0.42 (0.38-0.47)
same,Crude HR HRs (95% C.I.),[1]; [16],0.73 (0.66-0.80)
same,Crude HR HRs (95% C.I.),[2]; [13],0.46 (0.44-0.49)
same,Crude HR HRs (95% C.I.),[2]; [14],0.44 (0.42-0.47)
same,Crude HR HRs (95% C.I.),[2]; [16],0.76 (0.72-0.80)
same,Crude HR HRs (95% C.I.),[2]; [17],0.44 (0.42-0.47)
same,Crude HR HRs (95% C.I.),[3]; [13],0.62 (0.51-0.75)
same,Crude HR HRs (95% C.I.),[3]; [14],0.63 (0.51-0.77)
same,Crude HR HRs (95% C.I.),[3]; [15],0.71 (0.57-0.88)
same,Crude HR HRs (95% C.I.),[3]; [16],0.77 (0.65-0.93)
same,Crude HR HRs (95% C.I.),[4]; [13],0.66 (0.62-0.70)
same,Crude HR HRs (95% C.I.),[4]; [14],0.62 (0.58-0.67)
same,Crude HR HRs (95% C.I.),[4]; [16],0.85 (0.80-0.90)
same,Crude HR HRs (95% C.I.),[4]; [17],0.62 (0.58-0.66)
same,Crude HR HRs (95% C.I.),[5]; [13],0.54 (0.50-0.59)
same,Crude HR HRs (95% C.I.),[5]; [14],0.53 (0.48-0.57)
same,Crude HR HRs (95% C.I.),[5]; [15],0.50 (0.46-0.55)
same,Crude HR HRs (95% C.I.),[5]; [16],0.91 (0.83-0.99)
same,Crude HR HRs (95% C.I.),[6]; [13],0.54 (0.50-0.59)
same,Crude HR HRs (95% C.I.),[6]; [14],0.55 (0.50-0.60)
same,Crude HR HRs (95% C.I.),[6]; [15],0.55 (0.50-0.61)
same,Crude HR HRs (95% C.I.),[6]; [16],0.82 (0.75-0.90)
same,Proportion of cell distribution in cell cycle (%) M1:,"liver cancer cells HepG2; 1.5625 μM Amlodipine, 48 hrs",1.58%
same,Proportion of cell distribution in cell cycle (%) M2:,"liver cancer cells HepG2; 1.5625 μM Amlodipine, 48 hrs",70.28%
same,Proportion of cell distribution in cell cycle (%) M3:,"liver cancer cells HepG2; 1.5625 μM Amlodipine, 48 hrs",8.89%
same,Proportion of cell distribution in cell cycle (%) M4:,"liver cancer cells HepG2; 1.5625 μM Amlodipine, 48 hrs",19.34%
same,Proportion of cell distribution in cell cycle (%) M1:,"liver cancer cells HepG2; 3.125 μM Amlodipine, 48 hrs",1.36%
same,Proportion of cell distribution in cell cycle (%) M2:,"liver cancer cells HepG2; 3.125 μM Amlodipine, 48 hrs",69.60%
same,Proportion of cell distribution in cell cycle (%) M3:,"liver cancer cells HepG2; 3.125 μM Amlodipine, 48 hrs",8.91%
same,Proportion of cell distribution in cell cycle (%) M4:,"liver cancer cells HepG2; 3.125 μM Amlodipine, 48 hrs",20.23%
same,Proportion of cell distribution in cell cycle (%) M1:,"liver cancer cells HepG2; 6.25 μM Amlodipine, 48 hrs",1.91%
same,Proportion of cell distribution in cell cycle (%) M2:,"liver cancer cells HepG2; 6.25 μM Amlodipine, 48 hrs",66.92%
same,Proportion of cell distribution in cell cycle (%) M3:,"liver cancer cells HepG2; 6.25 μM Amlodipine, 48 hrs",10.28%
same,Proportion of cell distribution in cell cycle (%) M4:,"liver cancer cells HepG2; 6.25 μM Amlodipine, 48 hrs",21.01%
same,Proportion of cell distribution in cell cycle (%) M1:,"liver cancer cells HepG2; 12.5 μM Amlodipine, 48 hrs",81.27%
same,Proportion of cell distribution in cell cycle (%) M2:,"liver cancer cells HepG2; 12.5 μM Amlodipine, 48 hrs",12.49%
same,Proportion of cell distribution in cell cycle (%) M3:,"liver cancer cells HepG2; 12.5 μM Amlodipine, 48 hrs",3.31%
same,Proportion of cell distribution in cell cycle (%) M4:,"liver cancer cells HepG2; 12.5 μM Amlodipine, 48 hrs",2.95%
same,Proportion of cell distribution in cell cycle (%) M1:,liver cancer cells HepG2; [18],5.01%
same,Proportion of cell distribution in cell cycle (%) M2:,liver cancer cells HepG2; [18],76.16%
same,Proportion of cell distribution in cell cycle (%) M3:,liver cancer cells HepG2; [18],6.10%
same,Proportion of cell distribution in cell cycle (%) M4:,liver cancer cells HepG2; [18],12.87%
same,Proportion of cell distribution in cell cycle (%) M1:,liver cancer cells HepG2; [19],16.20%
same,Proportion of cell distribution in cell cycle (%) M2:,liver cancer cells HepG2; [19],65.01%
same,Proportion of cell distribution in cell cycle (%) M3:,liver cancer cells HepG2; [19],6.24%
same,Proportion of cell distribution in cell cycle (%) M4:,liver cancer cells HepG2; [19],12.69%
same,Proportion of cell distribution in cell cycle (%) M1:,liver cancer cells HepG2; [20],65.46%
same,Proportion of cell distribution in cell cycle (%) M2:,liver cancer cells HepG2; [20],22.64%
same,Proportion of cell distribution in cell cycle (%) M3:,liver cancer cells HepG2; [20],4.81%
same,Proportion of cell distribution in cell cycle (%) M4:,liver cancer cells HepG2; [20],7.22%
same,Proportion of cell distribution in cell cycle (%) M1:,liver cancer cells HepG2; [21],83.26%
same,Proportion of cell distribution in cell cycle (%) M2:,liver cancer cells HepG2; [21],11.13%
same,Proportion of cell distribution in cell cycle (%) M3:,liver cancer cells HepG2; [21],1.73%
same,Proportion of cell distribution in cell cycle (%) M4:,liver cancer cells HepG2; [21],3.93%
same,"cell division (cell cycle, in words)","liver cancer cells HepG2; 12.5 μM or more, 48 hrs",most cells were unable to undergo cell division
same,Proportion of cell distribution in cell cycle (%) M1:,"liver cancer cells HepG2; 25 μM Amlodipine, 48 hrs",99.75%
same,Proportion of cell distribution in cell cycle (%) M2:,"liver cancer cells HepG2; 25 μM Amlodipine, 48 hrs",0.22%
same,Proportion of cell distribution in cell cycle (%) M3:,"liver cancer cells HepG2; 25 μM Amlodipine, 48 hrs",0.00%
same,Proportion of cell distribution in cell cycle (%) M4:,"liver cancer cells HepG2; 25 μM Amlodipine, 48 hrs",0.94%
same,Amlodipine concentration at which the best inhibitory effect on the growth of liver cancer cells is achieved,HepG2 cells [7],greater than or equal to 12.5 μM
same,cell viability of liver cancer cells treated with Amlodipine,"HepG2 cells [7]; 1.5625-50 μM, 48 and 72 hrs, FIGS. 9, 11, 12",decreased
same,Amlodipine concentration at which the best inhibitory effect on the growth of liver cancer cells is achieved,Hep3B cells [8],greater than or equal to 12.5 μM
same,cell viability of liver cancer cells treated with Amlodipine,"Hep3B cells [8]; 1.5625-50 μM, 48 and 72 hrs, FIGS. 10, 13-15",decreased
same,intracellular expression of apoptotic proteins (Western blotting),HepG2 cells [9],results in the intracellular expression of apoptotic proteins
same,intracellular expression of apoptotic proteins (Western blotting),Hep3B cells [10],results in the intracellular expression of apoptotic proteins
same,cell invasion (crystal violet staining),HepG2 cells [11],lower
same,fluorescence intensity (cell invasion) vs cells not treated with Amlodipine,Hep3B cells [12],lower
